Laboratory results published in patent US20230277427A1, “COOLING SENSATION COMPOSITIONS” (GIVAUDAN SA, priority 2020, published 2023).

Key:
[1] = Solubility of compounds of formula (I) in different solvents (Example A); assay type: physicochemical; conditions: for in the fridge (precipitation): about 4° C. over night; for solubility @ RT: weight % of compound
Procedure: Into a 20 ml vial 0.4 g of 2-methyl-1-(2-(5-(p-tolyl)-1H-imidazol-2-yl)piperidin-1-yl)butan-1-one (white solid) have been added followed by the addition of 1.6 g of the respective solvent as indicated in Table 1 below. The vial was warmed to about 50° C. with gentle agitation for 1 hour. If 2-methyl-1-(2-(5-(p-tolyl)-1H-imidazol-2-yl)piperidin-1-yl)butan-1-one hasn't dissolved, 2 g of the respective solvent was added (resulting in a composition comprising 10 weight % of a compound of formula (I)), and again gentle agitated for an additional hour at about 50° C. If 2-methyl-1-(2-(5-(p-tolyl)-1H-imidazol-2-yl)piperidin-1-yl)butan-1-one still hasn't dissolved, 4 g of the respective solvent was added (resulting in a composition comprising 5 weight % of a compound of formula (I)), and again gentle agitated for an additional hour at about 50° C.
If 2-methyl-1-(2-(5-(p-tolyl)-1H-imidazol-2-yl)piperidin-1-yl)butan-1-one has dissolved, the vial was removed from the heat and was allowed to cool to room temperature. If no precipitation was observed the vials haven been placed in the fridge (about 4° C.) over night.
If 2-methyl-1-(2-(5-(p-tolyl)-1H-imidazol-2-yl)piperidin-1-yl)butan-1-one still has not dissolved, the procedure above has been repeated, starting with 0.05 g of 2-methyl-1-(2-(5-(p-tolyl)-1H-imidazol-2-yl)piperidin-1-yl)butan-1-one and 0.95 g of the respective solvent as indicated in Table 1 below. If still not dissolved, 1 g of the respective solvent was added (resulting in a composition comprising 2.5 weight % of a compound of formula (I))). If still not dissolved further solvent was added.

[2] = Stability of the solutions over time at different temperature (Example B); assay type: physicochemical
Procedure: The compound of Formula 1 was 2-methyl-1-(2-(5-(p-tolyl)-1H-imidazol-2-yl)piperidin-1-yl)butan-1-one (hereinafter “the compound”). The testing procedure with a number of different solvents was as follows: • 1. To 0.4 g compound was added 1.6 g solvent. This corresponds to a 20% solution. • 2. This mixture was warmed to 50° C. and agitated for 1 hour. • 3. If the compound dissolved, the solution was allowed to cool to room temperature, and then if it remained clear, it was stored overnight at 4° C. • 4. If crystals had developed, a further 2 g solvent was added (this now corresponding to a 10% solution) and step 2 were performed. • 5. The observations and actions of step 3 were performed. • 6. If the 10% combination of step 4 was not a solution, a further 4 g solvent was added (this now corresponding to a 5% solution), and step 2 were performed. • 7. The observations and actions of step 3 were performed. If crystals had developed, any such solvent was considered unsuitable Any solvent in which the compound was not crystallising at a 20 weight % solution, the testing procedure was repeated with a higher concentration as follows: • 1. To 1 g compound was added 1 g solvent. This corresponds to a 50% solution. • 2. This mixture was warmed to 50° C. and agitated for 1 hour. • 3. If the compound dissolved, the solution was allowed to cool to room temperature, and then if it remained clear, it was stored overnight at 4° C. • 4. If crystals had developed, a further 0.5 g solvent was added (this now corresponding to a 40% solution) and step 2 were performed. • 5. The observations and actions of step 3 were performed. • 6. If the 40% combination of step 4 was not a solution, a further 0.83 g solvent was added (this now corresponding to a 30% solution), and step 2 were performed. • 7. The observations and actions of step 3 were performed.

- in the fridge (precipitation) ([1]; solvent Butyl lactate, 10% solution): no crystals observed
- solubility @ RT ([1]; solvent Butyl lactate, dissolved at about 50° C., cooled to room temperature): 10%
- in the fridge (precipitation) ([1]; solvent Ethanol abs., 20% solution): no crystals observed
- solubility @ RT ([1]; solvent Ethanol abs., dissolved at about 50° C., cooled to room temperature): 20%
- in the fridge (precipitation) ([1]; solvent Ethyl lactate, 10% solution): no crystals observed
- solubility @ RT ([1]; solvent Ethyl lactate, dissolved at about 50° C., cooled to room temperature): 10%
- in the fridge (precipitation) ([1]; solvent Isopropyl alcohol, 10% solution): no crystals observed
- solubility @ RT ([1]; solvent Isopropyl alcohol, dissolved at about 50° C., cooled to room temperature): 10%
- in the fridge (precipitation) ([1]; solvent Isopropylidene glycerol, 10% solution): no crystals observed
- solubility @ RT ([1]; solvent Isopropylidene glycerol, dissolved at about 50° C., cooled to room temperature): 10%
- in the fridge (precipitation) ([1]; solvent L-Lactic acid, purity 86.7 weight %, 20% solution): no crystals observed
- solubility @ RT ([1]; solvent L-Lactic acid, purity 86.7 weight %, dissolved at about 50° C., cooled to room temperature): 20%
- in the fridge (precipitation) ([1]; solvent Propylene glycol, 2.5% solution): no crystals observed
- solubility @ RT ([1]; solvent Propylene glycol, dissolved at about 50° C., cooled to room temperature): 2.5%
- in the fridge (precipitation) ([1]; solvent Triacetin, 1% solution): no crystals observed
- solubility @ RT ([1]; solvent Triacetin, dissolved at about 50° C., cooled to room temperature): 1%
- in the fridge (precipitation) ([1]; solvent Triethyl citrate, 2.5% solution): no crystals observed
- solubility @ RT ([1]; solvent Triethyl citrate, dissolved at about 50° C., cooled to room temperature): 2.5%
- solubility @ RT ([1]; solvent Water dest.): <1% (not soluble)
- in the fridge (precipitation) ([1]; solvent dl-Lactic acid, purity 88 weight %, 20% solution): no crystals observed
- solubility @ RT ([1]; solvent dl-Lactic acid, purity 88 weight %, dissolved at about 50° C., cooled to room temperature): 20%
- stability of a solution, weight % of compound, @ 4° C. Overnight ([2]; solvent Butyl lactate): 20% weight %
- stability of a solution, weight % of compound, @ 4° C. Overnight ([2]; solvent Ethanol abs.): 30% weight %
- stability of a solution, weight % of compound, @ 4° C. Overnight ([2]; solvent Ethyl lactate): 10% weight %
- stability of a solution, weight % of compound, @ 4° C. Overnight ([2]; solvent Isopropyl alcohol): 10% weight %
- stability of a solution, weight % of compound, @ 4° C. Overnight ([2]; solvent Isopropylidene glycerol): 10% weight %
- stability of a solution, weight % of compound, @ 4° C. Overnight ([2]; solvent L-Lactic acid, purity 86.7 weight %): 50% weight %
- stability of a solution, weight % of compound, @ 4° C. Overnight ([2]; solvent dl-Lactic acid, purity 88 weight %): 50% weight %
Structure (SMILES): CCC(C)C(=O)N1CCCCC1c1ncc(-c2ccc(C)cc2)[nH]1 (stereo not shown) [2-methyl-1-(2-(5-(p-tolyl)-1H-imidazol-2-yl)piperidin-1-yl)butan-1-one]
